Measurements taken from US12404295B2, “(Hetero)aryl-methyl-thio-beta-D-galactopyranoside derivatives” (Idorsia Pharmaceuticals Ltd, priority 2019, dated 2025).

What was measured:
[1] = target: human Gal-1 (hGal-1) (Homo sapiens (Human), UniProt P09382); assay: competitive binding assay: biotinylated hGal-1 binding to microplate-adsorbed asialofetuin (ASF); details: Table 15; read-out: IC50 (Galectin-1 inhibition)
In short: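 Biotinylated human Gal-1 (300-1000 ng/mL) competes with serially diluted compound for binding to ASF-coated plates, 3 h at 4° C. Bound protein detected with streptavidin-peroxidase and ABTS substrate (spectrophotometric). IC50 given as mean of several measurements.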

[2] = target: human Gal-3 (hGal-3) (Homo sapiens (Human), UniProt P17931); assay: competitive binding assay: biotinylated hGal-3 binding to microplate-adsorbed asialofetuin (ASF); details: Table 5; read-out: IC50 (Gal-3 inhibition)
In short: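 Peroxidase activity developed with ABTS measures the biotinylated hGal-3 remaining on the asialofetuin-coated surface after competition with test compounds. Incubation ran 3 h at 4 °C, followed by 1 h with streptavidin-peroxidase at 80 ng/mL.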

human Gal-1 (hGal-1), sequence (P09382 whole entry): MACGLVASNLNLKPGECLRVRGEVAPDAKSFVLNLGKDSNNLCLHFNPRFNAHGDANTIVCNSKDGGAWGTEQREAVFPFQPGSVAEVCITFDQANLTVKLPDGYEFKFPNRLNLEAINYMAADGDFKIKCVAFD
human Gal-3 (hGal-3), sequence (P17931 whole entry): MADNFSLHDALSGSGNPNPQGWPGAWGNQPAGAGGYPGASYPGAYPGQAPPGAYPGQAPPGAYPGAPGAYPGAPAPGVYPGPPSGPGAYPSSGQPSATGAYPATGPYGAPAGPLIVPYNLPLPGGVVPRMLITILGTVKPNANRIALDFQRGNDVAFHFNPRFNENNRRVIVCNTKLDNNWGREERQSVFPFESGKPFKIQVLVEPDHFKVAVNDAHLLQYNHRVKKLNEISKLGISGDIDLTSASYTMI

Row | Substance | IC50 [1] | IC50 [2]
1 | (2S,3R,4S,5R,6R)-2-(((S)-(1-Hydroxycyclohexyl)(4-methylisoxazol-3-yl)methyl)thio)-6-(hydroxymethyl)-4-(4-(3,4,5-trifluorophenyl)-1H-1,2,3-triazol-1-yl)tetrahydro-2H-pyran-3,5-diol [Example 2.39.120S.] | 70 µM | 14.8 µM
2 | (2S,3R,4S,5R,6R)-2-(((S)-(2,3-Dichlorophenyl)(4,4-difluoro-1-hydroxycyclohexyl)methyl)thio)-6-(hydroxymethyl)-4-(4-(3,4,5-trifluorophenyl)-1H-1,2,3-triazol-1-yl)tetrahydro-2H-pyran-3,5-diol [Example 2.44.113S.] | 56.8 µM | 57.5 µM
3 | (2S,3R,4S,5R,6R)-2-(((S)-(3,3-Difluoro-1-hydroxycyclobutyl)(3-(trifluoromethyl)pyridin-2-yl)methyl)thio)-6-(hydroxymethyl)-4-(4-(3,4,5-trifluorophenyl)-1H-1,2,3-triazol-1-yl)tetrahydro-2H-pyran-3,5-diol [Example 2.35.125S.] | 21.8 µM | 3 µM
4 | (2S,3R,4S,5R,6R)-2-(((S)-(4-Hydroxy-2,2,6,6-tetramethyltetrahydro-2H-pyran-4-yl)(2-(trifluoromethyl)phenyl)methyl)thio)-6-(hydroxymethyl)-4-(4-(3,4,5-trifluorophenyl)-1H-1,2,3-triazol-1-yl)tetrahydro-2H-pyran-3,5-diol [Example 2.42.102S.] | > 100 µM | 7.82 µM
5 | (2S,3R,4S,5R,6R)-2-(((S)-((R)-4-Hydroxy-2,2-dimethyltetrahydro-2H-pyran-4-yl)(2-(trifluoromethyl)phenyl)methyl)thio)-6-(hydroxymethyl)-4-(4-(3,4,5-trifluorophenyl)-1H-1,2,3-triazol-1-yl)tetrahydro-2H-pyran-3,5-diol [Example 2.43.102SR.] | 55 µM | 3.9 µM
6 | (2S,3R,4S,5R,6R)-2-(((S)-((S)-4-Hydroxy-2,2-dimethyltetrahydro-2H-pyran-4-yl)(2-(trifluoromethyl)phenyl)methyl)thio)-6-(hydroxymethyl)-4-(4-(3,4,5-trifluorophenyl)-1H-1,2,3-triazol-1-yl)tetrahydro-2H-pyran-3,5-diol [Example 2.43.102SS.] | 69.5 µM | 3.92 µM

These reach a lower IC50 [1]. Values come first.

Row | IC50 [1] | IC50 [2] | Substance
7 | 0.4 µM | 0.13 µM | (2S,3R,4S,5R,6R)-2-(((R)-((S)-4-Hydroxy-2,2-dimethyltetrahydro-2H-pyran-4-yl)(o-tolyl)methyl)thio)-6-(hydroxymethyl)-4-(4-(3,4,5-trifluorophenyl)-1H-1,2,3-triazol-1-yl)tetrahydro-2H-pyran-3,5-diol [Example 2.43.112RS.]
8 | 1.9 µM | 0.93 µM | (2S,3R,4S,5R,6R)-2-(((S)-(2-Cyclopropylphenyl)(4,4-difluoro-1-hydroxycyclohexyl)methyl)thio)-6-(hydroxymethyl)-4-(4-(3,4,5-trifluorophenyl)-1H-1,2,3-triazol-1-yl)tetrahydro-2H-pyran-3,5-diol [Example 2.44.106S.]
9 | 17.6 µM | 19.5 µM | (2S,3R,4S,5R,6R)-2-(((S)-(4,4-Difluoro-1-hydroxycyclohexyl)(2-(trifluoromethyl)phenyl)methyl)thio)-6-(hydroxymethyl)-4-(4-(3,4,5-trifluorophenyl)-1H-1,2,3-triazol-1-yl)tetrahydro-2H-pyran-3,5-diol [Example 2.44.112S.]
10 | 10.9 µM | 4.9 µM | (2S,3R,4S,5R,6R)-2-(((S)-((R)-4-Hydroxy-2,2-dimethyltetrahydro-2H-pyran-4-yl)(o-tolyl)methyl)thio)-6-(hydroxymethyl)-4-(4-(3,4,5-trifluorophenyl)-1H-1,2,3-triazol-1-yl)tetrahydro-2H-pyran-3,5-diol [Example 2.43.112SR.]
11 | 19.4 µM | 7.3 µM | (2S,3R,4S,5R,6R)-2-(((S)-((S)-4-Hydroxy-2,2-dimethyltetrahydro-2H-pyran-4-yl)(o-tolyl)methyl)thio)-6-(hydroxymethyl)-4-(4-(3,4,5-trifluorophenyl)-1H-1,2,3-triazol-1-yl)tetrahydro-2H-pyran-3,5-diol [Example 2.43.112SS.]
